One data set has as its target GSK-3β (Homo sapiens, UniProt P49841). Description: biochemical. Conditions: read-out: increase of the melting point of the protein. As to the method: We evaluated the pharmacological properties of the compounds in vitro against GSK-3β using the GSK-3β Kinase Enzyme System followed by ADP-Glo bioluminescent assay.[50] The principle of the assay is to determine the amount of ADP formed from ATP in the kinase reaction. […] Additionally, compounds 11 and 36 in complex with GSK-3β were analyzed by the proteins’ melting temperature determination using Thermal Shift Assay (see Figure S1 in the SI).

For data set [1] the following is noted: human liver microsomes; for % of the compound remaining after 2 h of incubation: 2 h (120 min), 37 °C. Here is the method:
The primary site of drug metabolism in humans is the liver. Therefore, we used human liver microsomes (HLM) to determine the metabolic stability of selected compounds (Table 3). The compounds were incubated with HLMs for 2 h, and the resulting mixtures were analyzed with UPLC-MS (for details including the UPLC-MS spectra, see Table S10 and Figures S17–S22 in the SI).
All protocols used for the evaluation of drug-like properties (ADME-To parameters) were described in our previous works.[58],[89] Precoated PAMPA Plate System Gentest was obtained from Corning, (Tewksbury, MA, USA). The metabolic stability assay was performed on human liver microsomes (HLMs, Sigma-Aldrich, St. Louis, MO, USA). The assays with microsomes were supported by MetaSite 6.0.1 software (Molecular Discovery Ltd. Hertfordshire, UK). To predict potential drug–drug interactions (DDIs) the influence on CYP3A4, CYP2D6, and CYP2C9 were carried with use of respective P450-Glo kit (Promega, Madison, WI, USA). The luminescence signal and absorbance were measured by using a microplate reader EnSpire PerkinElmer (Waltham, MA, USA). The LC/MS/MS analyses used in PAMPA and the assays with use of HLMs were obtained on Waters ACQUITY TQD system (Waters, Milford, CT, USA). […] Statistical significances and IC50 values were calculated by Graph Pad Prism 9 software.
Table S9. Differences in binding energies given for methods in gas and water environment.
Method gas [kcal/mol] water [kcal/mol]
Metabolic stability of compounds 11 and 36 in human liver microsomes (HLMs)
Table S10. The molecular masses and metabolic pathways of compounds 11 and 36 determined using human liver microsomes.
Substrate mass % mass of the Metabolic pathway*
(m/z) remaining metabolite
*most probable metabolic pathways were estimated by MS analyses supported by in silico prediction using MetaSite 6.0.1 and ADMET Predictor tools
Figure S17. The MetaSite 6.0.1. software prediction of the most probabl e sites of compounds’ 11 and 36 metabolism. The darker the red color - the higher the probability of being involved […]

Data set [2] is described as follows: Cytotoxicity in HT-22 cells (PrestoBlue). To be noted: mouse, HT-22 hippocampal neuronal cells. Here is the method: The compounds were tested at 5 concentrations (0.1, 1, 10, 50, and 100 μM).
Mouse Hippocampal Neuronal Cell Line (HT-22) was a generous gift from Dr Bartosz Pomierny of the Department of Biochemical Toxicology, Jagiellonian University Medical College, Krakow, Poland. Cells were cultured in Dulbecco’s modified Eagle’s Medium—high glucose (DMEM, Glutamax Thermo Fisher) supplemented with 10% heat-inactivated fetal bovine serum (Thermo Fisher), 100 IU/mL penicillin (Merck) and 100 μg/mL streptomycin (Merck). Cells were cultured in flasks (area 175 cm^2, Nunc), and incubated at 37 °C, 5% CO2. For the measurement of cell viability and neuroprotective effect against okadaic acid cells were placed in a 96-well culture plate (2 × 10^4 cells per well, Falcon). Before the tests, cells were grown for 24 h in the incubator (37 °C, 5% CO2).
Cell viability was evaluated using the PrestoBlue reagent (ThermoFisher), according to the manufacturer’s procedures.[87] Following 24 h of incubation with the tested molecule, PrestoBlue reagent was added to a microplate well in an amount equal to one-tenth of the remaining medium volume. The resulting mixture was incubated for 15 min at 37 °C, and the fluorescence intensity (EX 530 nm; EM 580 nm) was measured in the plate reader POLARstar Omega, (BMG Labtech).

The subject of a further data set is BV-2 cell line. Briefly: NO release in LPS-treated BV-2 cells (DAN fluorometric assay). The class given is cell-based, mouse. Conditions: compound 10 μM; LPS 100 ng/mL. As to the method:
Cell viability was determined by Presto Blue assay after 24 h. (B) Effect of compounds 11, 34, and 36 (0.1, 1, 10 μM) on NO-release (%) in LPS-treated (100 ng/mL) BV-2 cell line. NO-release was measured using a fluorometric assay with 2,3-diaminonaphthalene (DAN). (C, D) Effects of compounds 11 and 36 (0.1, 1, 10 μM) on IL-6 and TNF-α release in LPS-treated (100 ng/mL) BV-2 cell line. The IL-6 and TNF-α levels were measured using LANCE Ultra TR-FRET Detection Kit (PerkinElmer). Statistical analysis was performed using GraphPad Prism 9.0.0. All values are expressed as mean with SD. Differences among groups were evaluated by one-way ANOVA followed by posthoc analysis (Dunnett’s multiple comparison tests) vs. control group (LPS on BV-2 cells and okadaic acid on HT-22 cells) and were considered statistically significant if p < 0.05 (*p < 0.05, **p < 0.01, ***p < 0.001, and ****p < 0.0001).
An important role in the pathogenesis of AD has been attributed to neuroinflammation resulting from the activation of astrocytes and microglial cells.[55] These processes lead to increased production of proinflammatory cytokines such as TNF-α or IL-6 that activate processes, e.g., tau hyperphosphorylation, causing injury and cell death.[56] A standard model of neuroinflammation is based on lipopolysaccharide-stimulated BV-2 microglial cells. In this study, we used this model to evaluate the anti-inflammatory properties of compounds 11, 34, and 36.[57] Our evaluation focused on monitoring the levels of key inflammatory markers, including nitric oxide (NO, Figure 6B) and cytokines, TNF-α and IL-6 (Figure 6C,D).
The cells were pretreated with tested compounds for 1 h. […]
The NO level in the culture supernatants was measured using 2,3-diaminonaphthalene (DAN) reagent according to the method of Nussler et al.[88] After 15 min of incubation at room temperature, the fluorescence intensity (EX 360; EM 440 nm) was measured using a microplate reader POLARstar Omega, (BMG Labtech). The values of nitric oxide were calculated as a percentage of control (maximal response of LPS).

The structures appear in SMILES notation. Several values for one entry are separate records, joined by “and”; a condition that tells them apart may be missing. Equal entries are not always repeated.

Chain of GSK-3β (P49841 26-383): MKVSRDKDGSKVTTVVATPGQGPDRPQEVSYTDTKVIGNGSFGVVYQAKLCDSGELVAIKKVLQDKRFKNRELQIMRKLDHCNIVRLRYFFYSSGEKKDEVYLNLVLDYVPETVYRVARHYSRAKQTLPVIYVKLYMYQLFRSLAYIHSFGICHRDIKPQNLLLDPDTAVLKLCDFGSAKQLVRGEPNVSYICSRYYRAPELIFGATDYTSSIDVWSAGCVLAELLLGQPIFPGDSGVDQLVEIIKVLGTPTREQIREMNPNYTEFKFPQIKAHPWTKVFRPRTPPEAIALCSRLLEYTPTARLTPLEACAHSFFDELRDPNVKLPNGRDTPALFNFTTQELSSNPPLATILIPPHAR

`O=C(Nc1cc(-c2ccc(-c3ncon3)s2)ccn1)C1CC1` [Compound 36, N-(4-(5-(1,2,4-Oxadiazol-3-yl)thiophen-2-yl)pyridin-2-yl)cyclopropanecarboxamide]: on GSK-3β, the ΔTm at 10 µM came out at 14 °C. The “% of the compound metabolized” value in data set [1] (2 h) is reported as 11%. Further, in data set [1], the “% of the compound remaining after 2 h of incubation” value is 88.61% and 88.6%. Besides, the IC50 (usually the point on the concentration scale where inhibition reaches its midpoint) at 24 h in data set [2] is above 100 µM. Further, the NO release result in the data set with BV-2 cell line is “significantly reducing the release”.

Regarding `NC(=O)N1CC=C(c2ccnc(NC(=O)C3CC3)c2)C1` [Compound 11, 3-(2-(Cyclopropanecarboxamido)pyridin-4-yl)-2,5-dihydro-1H-pyrrole-1-carboxamide], on GSK-3β, the ΔTm at 10 µM came to 13 °C. Further, the “% of the compound remaining after 2 h of incubation” value in data set [1] came to 100%. In data set [2], this compound gave an IC50 at 24 h of 45.8 ± 9.7 µM. Besides, in the data set with BV-2 cell line, the NO release entry is on record as “significantly reducing the release”.

(Values after publication PMC11378298 (ACS Chemical Neuroscience, 2024).)
